What follows are molecules tested against T1, Alpha-1B adrenergic receptor (Mesocricetus auratus, UniProt P18841).
T1 sequence (P18841 whole entry): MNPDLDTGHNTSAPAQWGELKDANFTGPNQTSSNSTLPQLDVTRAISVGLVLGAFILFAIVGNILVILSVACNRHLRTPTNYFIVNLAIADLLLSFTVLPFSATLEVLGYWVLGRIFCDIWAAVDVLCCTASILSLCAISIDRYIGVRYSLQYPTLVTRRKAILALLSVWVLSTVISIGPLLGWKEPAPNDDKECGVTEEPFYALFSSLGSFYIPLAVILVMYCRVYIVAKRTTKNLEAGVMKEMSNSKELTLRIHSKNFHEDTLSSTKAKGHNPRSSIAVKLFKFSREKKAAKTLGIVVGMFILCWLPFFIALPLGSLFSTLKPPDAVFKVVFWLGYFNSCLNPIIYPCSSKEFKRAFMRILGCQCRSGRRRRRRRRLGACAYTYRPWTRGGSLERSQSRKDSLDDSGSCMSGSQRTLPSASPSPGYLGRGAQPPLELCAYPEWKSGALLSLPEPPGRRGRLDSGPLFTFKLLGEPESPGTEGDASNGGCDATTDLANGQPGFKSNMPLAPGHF

| Structure (SMILES) | Ki [µM] |
| --- | --- |
| COc1ccc(OC)c(C(O)C(C)N)c1 (stereo not drawn) | > 10 |
| CNCC(O)c1ccc(O)c(O)c1 (stereo not drawn) [EPINEPHRINE] | 9.4 |
| CC(C)NCC(O)c1ccc(O)c(O)c1 (stereo not drawn) [Isoproterenol,(+)] | > 10 |
| COc1cccc(OC)c1OCCNCC1Oc2ccccc2OC1c1ccccc1 (stereo not drawn) [NSC_185453] | 0.0052 |
| NCC(O)c1ccc(O)c(O)c1 (stereo not drawn) [Noradrenaline,(+)] | 0.92 |
| Cc1ccc(N(CC2=NCCN2)c2cccc(O)c2)cc1 [SMR000059054] | 0.018 |
| COc1ccccc1N1CCN(CCCNc2c(C)c(=O)n(C)c(=O)n2C)CC1 [Urapidil-5-methyl] | 0.18 |
| COC(=O)[C@@H]1[C@H]2C[C@H]3c4[nH]c5ccccc5c4CCN3C[C@@H]2CC[C@@H]1O [yohimbic acid methyl ester] | 0.67 |
